Experimental data reported in patent US11058661B2, “Compositions and methods for lowering triglycerides in a subject on concomitant statin therapy and having hsCRP levels of at least about 2 mg/L” (priority 2018, dated 2021).

What was measured:
[1] = test system: subjects with Age-Associated Memory Impairment (safety population); assay: AAMI pilot study: safety and tolerability; format: in vivo, human
Method: All randomized subjects that received at least 1 dose of study medication were included in the Safety Population.
Safety evaluations were based on the safety population. Safety and tolerability were assessed in terms of AEs, vital signs, 12-lead ECG, clinical laboratory data, medical history, and study drug compliance. Safety and tolerability data were presented by treatment group.

[2] = AAMI pilot study: essential fatty acids in plasma and RBC; format: in vivo, human
Method: Blood samples (10 mL) were collected at Visit 1 (screening) and at Visits 4, 5 and 6. Analysis was performed by MSR Lipid Analysis, Scottish Crop Research Institute, Dundee, UK. The screening sample acted as baseline for the EFA measurements. Lipid was extracted from plasma, serum and RBC suspensions and converted into fatty acid methyl esters which were analyzed by gas chromatography to give fatty acid profiles as micrograms fatty acid per gram of sample (μgFA/g) and normalized area percent. RBC and plasma EFA data were collected at baseline, Day 14, 28 and 42 and summarized by visit for each treatment group. Change from baseline and percent change from baseline were also summarized. ANCOVA comparison of ethyl-EPA dose groups and ethyl-EPA versus placebo was performed.

## CC/C=C\C/C=C\C/C=C\C/C=C\C/C=C\CCCC(=O)OCC [Icosapent Ethyl, ethyl eicosapentaenoate]
[1]; 1 g
  subjects with nausea Probably Related to the study drug: One
[1]; 1 g cohort
  subjects with nausea Possibly Related to the study drug: two
[1]; 2 g cohort
  subjects with nausea Possibly Related to the study drug: one
[1]; 2 g group
  subjects discontinued due to TEAEs: 2 subjects
[1]; 2 g group, judged unrelated to study drug
  SAE reported: One
[1]; 4 g
  subjects with diarrhea Probably Related to the study drug: Another subject
[1]; 4 g cohort
  subjects with nausea Possibly Related to the study drug: two
[1]; all ethyl-EPA treatment groups, 6 weeks
  TEAEs reported: 105 events
[1]; all groups
  TEAEs Definitely Related to the study drug: No TEAEs
  deaths during the study: no deaths
[2]; RBC
  DHA LS Mean, 1 g versus 4 g: 1.0 µg/g
  DHA LS Mean, 2 g versus 4 g: 1.0 µg/g
  DPAn-3 LS Mean, 1 g versus 4 g: -6.2 µg/g
  DPAn-3 LS Mean, 2 g versus 4 g: -2.5 µg/g
[2]; RBC, Day 14, 1 g
  AA Mean (SD) change from Baseline: −8.1 (21.95) μg/g
  DGLA Mean (SD) change from Baseline: −2.7 (3.82) μg/g
  DHA Mean (SD) change from Baseline: −4.6 (9.76) μg/g
  DPAn-3 Mean (SD) change from Baseline: 0.9 (5.03) μg/g
  EPA/AA Mean (SD) change from Baseline: 0.1 (0.04) μg/g
[2]; RBC, Day 14, 2 g
  AA Mean (SD) change from Baseline: −3.1 (25.84) μg/g
  DGLA Mean (SD) change from Baseline: −2.6 (3.54) μg/g
  DHA Mean (SD) change from Baseline: −2.0 (9.46) μg/g
  DPAn-3 Mean (SD) change from Baseline: 5.6 (6.28) μg/g
  EPA/AA Mean (SD) change from Baseline: 0.2 (0.04) μg/g
[2]; RBC, Day 14, 4 g
  DGLA Mean (SD) change from Baseline: −5.3 (4.10) μg/g
  DHA Mean (SD) change from Baseline: −6.9 (9.13) μg/g
  DPAn-3 Mean (SD) change from Baseline: 5.4 (5.38) μg/g
  EPA/AA Mean (SD) change from Baseline: 0.3 (0.07) μg/g
[2]; RBC, Day 28, 1 g
  AA Mean (SD) change from Baseline: −17.0 (20.69) μg/g
  DGLA Mean (SD) change from Baseline: −3.8 (3.31) μg/g
  DHA Mean (SD) change from Baseline: −6.4 (11.57) μg/g
  DPAn-3 Mean (SD) change from Baseline: 3.3 (5.42) μg/g
  EPA/AA Mean (SD) change from Baseline: 0.1 (0.05) μg/g
[2]; RBC, Day 28, 2 g
  DGLA Mean (SD) change from Baseline: −4.5 (3.58) μg/g
  DHA Mean (SD) change from Baseline: −6.2 (9.34) μg/g
  DPAn-3 Mean (SD) change from Baseline: 9.4 (6.74) μg/g
  EPA/AA Mean (SD) change from Baseline: 0.02 (0.06) μg/g
[2]; RBC, Day 28, 4 g
  DGLA Mean (SD) change from Baseline: −7.1 (4.63) μg/g
  DHA Mean (SD) change from Baseline: −8.7 (11.63) μg/g
  EPA/AA Mean (SD) change from Baseline: 0.4 (0.11) μg/g
[2]; RBC, Day 42, 1 g
  DGLA Mean (SD) change from Baseline: −3.5 (4.51) μg/g
  DHA Mean (SD) change from Baseline: −7.0 (12.20) μg/g
  DPAn-3 Mean (SD) change from Baseline: 6.5 (6.19) μg/g
  EPA/AA Mean (SD) change from Baseline: 0.1 (0.06) μg/g
[2]; RBC, Day 42, 2 g
  DGLA Mean (SD) change from Baseline: −5.3 (3.65) μg/g
  DHA Mean (SD) change from Baseline: −6.3 (9.42) μg/g
  EPA/AA Mean (SD) change from Baseline: 0.3 (0.06) μg/g
[2]; RBC, Day 42, 4 g
  DGLA Mean (SD) change from Baseline: −8.0 (4.98) μg/g
  EPA/AA Mean (SD) change from Baseline: 0.4 (0.14) μg/g
[2]; plasma
  DPAn-3 LS Mean, 2 g versus 4 g: -9.5 µg/g
[2]; plasma and RBC, to Day 42, 1, 2 and 4 g groups
  EPA values, change from baseline: increased substantially from baseline
[2]; plasma, Day 14, 1 g
  AA Mean (SD) change from Baseline: −9.7 (22.20) μg/g
  DHA Mean (SD) change from Baseline: −6.4 (13.30) μg/g
  DPAn-3 Mean (SD) change from Baseline: 7.5 (5.11) μg/g
  EPA/AA Mean (SD) change from Baseline: 0.3 (0.4) μg/g
[2]; plasma, Day 14, 2 g
  DHA Mean (SD) change from Baseline: −5.4 (14.29) μg/g
  EPA/AA Mean (SD) change from Baseline: 0.6 (0.23) μg/g
[2]; plasma, Day 14, 4 g
  EPA/AA Mean (SD) change from Baseline: 1.1 (0.28) μg/g
[2]; plasma, Day 28, 1 g
  DHA Mean (SD) change from Baseline: −6.6 (15.53) μg/g
  DPAn-3 Mean (SD) change from Baseline: 3.9 (5.62) μg/g
  EPA/AA Mean (SD) change from Baseline: 0.3 (0.20) μg/g
[2]; plasma, Day 28, 2 g
  DHA Mean (SD) change from Baseline: −8.1 (15.82) μg/g
  EPA/AA Mean (SD) change from Baseline: 0.8 (0.35) μg/g
[2]; plasma, Day 28, 4 g
  EPA/AA Mean (SD) change from Baseline: 1.3 (0.42) μg/g
[2]; plasma, Day 42, 1 g
  AA Mean (SD) change from Baseline: −8.7 (31.35) μg/g
  DGLA Mean (SD) change from Baseline: −9.4 (9.41) μg/g
  DHA Mean (SD) change from Baseline: −5.4 (18.17) μg/g
  EPA/AA Mean (SD) change from Baseline: 0.3 (0.24) μg/g
[2]; plasma, Day 42, 2 g
  DHA Mean (SD) change from Baseline: −6.0 (16.69) μg/g
  EPA/AA Mean (SD) change from Baseline: 0.7 (0.29) μg/g
[2]; plasma, Day 42, 4 g
  DPAn-3 Mean (SD) change from Baseline: 32.0 (16.01) μg/g
  EPA/AA Mean (SD) change from Baseline: 1.3 (0.45) μg/g
